{"source": "patent US20250002487A1", "about": "“HETEROCYCLIC COMPOUNDS AND USES THEREOF” (Ventus Therapeutics U.S., Inc., priority 2021, published 2025)", "data": [{"molecular_target": "human-cGAS (h-cGAS) (Homo sapiens, UniProt Q8N884)", "sequence (Q8N884 whole entry)": "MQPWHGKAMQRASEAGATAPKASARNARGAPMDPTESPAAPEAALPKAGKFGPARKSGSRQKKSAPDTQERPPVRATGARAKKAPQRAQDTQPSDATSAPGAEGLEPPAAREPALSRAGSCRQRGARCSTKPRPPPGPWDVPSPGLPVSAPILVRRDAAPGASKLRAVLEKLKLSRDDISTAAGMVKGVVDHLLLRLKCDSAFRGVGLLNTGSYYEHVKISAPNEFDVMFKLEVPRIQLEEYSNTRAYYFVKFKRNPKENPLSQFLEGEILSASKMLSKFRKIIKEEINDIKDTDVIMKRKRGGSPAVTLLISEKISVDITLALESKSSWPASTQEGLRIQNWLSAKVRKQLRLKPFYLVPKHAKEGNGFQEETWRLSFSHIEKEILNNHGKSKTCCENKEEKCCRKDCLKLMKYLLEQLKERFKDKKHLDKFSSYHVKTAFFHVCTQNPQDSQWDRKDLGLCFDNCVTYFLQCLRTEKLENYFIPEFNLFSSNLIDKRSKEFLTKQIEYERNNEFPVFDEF", "assay": "hcGAS Kinase-Glo Assay", "format": "biochemical", "conditions": "40 nM h-cGAS, 100 μM ATP, 100 μM GTP, 25 nM dsDNA, 3 h incubation, read-out: hcGAS potency IC50", "in_short": "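IC50 values come from a luminescence-based Kinase-Glo measurement on human cGAS. Conditions follow the Lama et al. 2019 method with minor modifications.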", "units": {"IC50": "nM"}, "values": [{"smiles": "COc1ccc2c(C(=O)Nc3nnc(SC)s3)onc2c1", "note": "[Compound 231, 6-methoxy-N-[5-(methylsulfanyl)-1,3,4-thiadiazol-2-yl]-2,1-benzoxazole-3-carboxamide]", "IC50": "100 to 500"}, {"smiles": "CSc1nnc(NC(=O)c2oncc2-c2ccccc2)s1", "note": "[Compound 232, N-[5-(methylsulfanyl)-1,3,4-thiadiazol-2-yl]-4-phenyl-1,2-oxazole-5-carboxamide]", "IC50": "500 to 1000"}, {"smiles": "CSc1nnc(NC(=O)c2cc(Cc3ccccc3)no2)s1", "note": "[Compound 233, 3-benzyl-N-[5-(methylsulfanyl)-1,3,4-thiadiazol-2-yl]-1,2-oxazole-5-carboxamide]", "IC50": "500 to 1000"}, {"smiles": "CSc1nnc(NC(=O)c2nc(-c3ccccc3)no2)s1", "note": "[Compound 234, N-[5-(methylsulfanyl)-1,3,4-thiadiazol-2-yl]-3-phenyl-1,2,4-oxadiazole-5-carboxamide]", "IC50": "500 to 1000"}, {"smiles": "CSc1nnc(NC(=O)c2nnc(-c3ccccc3)o2)s1", "note": "[Compound 235, N-[5-(methylsulfanyl)-1,3,4-thiadiazol-2-yl]-5-phenyl-1,3,4-oxadiazole-2-carboxamide]", "IC50": "500 to 1000"}, {"smiles": "CSc1nnc(NC(=O)c2noc(-c3ccccc3)n2)s1", "note": "[Compound 236, N-(5-methylsulfanyl-1,3,4-thiadiazol-2-yl)-5-phenyl-1,2,4-oxadiazole-3-carboxamide]", "IC50": "500 to 1000"}, {"smiles": "CSc1nnc(NC(=O)c2cc(-c3ccccc3F)cc(=O)o2)s1", "note": "[Compound 237, 4-(2-fluorophenyl)-N-(5-methylsulfanyl-1,3,4-thiadiazol-2-yl)-6-oxo-pyran-2-carboxamide]", "IC50": "100 to 500"}, {"smiles": "CSc1nnc(NC(=O)c2cc(-c3cccc(F)c3)cc(=O)o2)s1", "note": "[Compound 238, 4-(3-fluorophenyl)-N-(5-methylsulfanyl-1,3,4-thiadiazol-2-yl)-6-oxo-pyran-2-carboxamide]", "IC50": "100 to 500"}, {"smiles": "CSc1nnc(NC(=O)c2cc(-c3ccc(F)cc3)cc(=O)o2)s1", "note": "[Compound 239, 4-(4-fluorophenyl)-N-(5-methylsulfanyl-1,3,4-thiadiazol-2-yl)-6-oxo-pyran-2-carboxamide]", "IC50": "100 to 500"}, {"smiles": "CSc1nnc(NC(=O)c2cc(-c3cccc(Cl)c3)cc(=O)o2)s1", "note": "[Compound 240, 4-(3-chlorophenyl)-N-(5-methylsulfanyl-1,3,4-thiadiazol-2-yl)-6-oxo-pyran-2-carboxamide]", "IC50": "100 to 500"}, {"smiles": "COc1cccc(-c2cc(C(=O)Nc3nnc(SC)s3)oc(=O)c2)c1", "note": "[Compound 241, 4-(3-methoxyphenyl)-N-(5-methylsulfanyl-1,3,4-thiadiazol-2-yl)-6-oxo-pyran-2-carboxamide]", "IC50": "100 to 500"}, {"smiles": "CSc1nnc(NC(=O)c2onc(C)c2C)s1", "note": "[Compound 242, 3,4-dimethyl-N-(5-methylsulfanyl-1,3,4-thiadiazol-2-yl)isoxazole-5-carboxamide]", "IC50": "500 to 1000"}, {"smiles": "CSc1nnc(NC(=O)c2cc(-c3ccc(Cl)cc3)cc(=O)o2)s1", "note": "[Compound 243, 4-(4-chlorophenyl)-N-(5-methylsulfanyl-1,3,4-thiadiazol-2-yl)-6-oxo-pyran-2-carboxamide]", "IC50": "500 to 1000"}, {"smiles": "COc1ccccc1-c1cc(C(=O)Nc2nnc(SC)s2)oc(=O)c1", "note": "[Compound 244, 4-(2-methoxyphenyl)-N-(5-methylsulfanyl-1,3,4-thiadiazol-2-yl)-6-oxo-pyran-2-carboxamide]", "IC50": "100 to 500"}, {"smiles": "CSc1nnc(NC(=O)c2cc(-c3ccc4ccccc4c3)cc(=O)o2)s1", "note": "[Compound 245, N-(5-methylsulfanyl-1,3,4-thiadiazol-2-yl)-4-(2-naphthyl)-6-oxo-pyran-2-carboxamide]", "IC50": "100 to 500"}, {"smiles": "CSc1nnc(NC(=O)c2cc(-c3cccc4cccnc34)cc(=O)o2)s1", "note": "[Compound 246, N-(5-methylsulfanyl-1,3,4-thiadiazol-2-yl)-6-oxo-4-(8-quinolyl)pyran-2-carboxamide]", "IC50": "100 to 500"}, {"smiles": "CSc1nnc(NC(=O)c2cc(-c3ccnc4ccccc34)cc(=O)o2)s1", "note": "[Compound 247, N-(5-methylsulfanyl-1,3,4-thiadiazol-2-yl)-6-oxo-4-(4-quinolyl)pyran-2-carboxamide]", "IC50": "500 to 1000"}, {"smiles": "CSc1nnc(NC(=O)c2cc(-c3ccccc3C)cc(=O)o2)s1", "note": "[Compound 248]", "IC50": "100 to 500"}, {"smiles": "CSc1nnc(NC(=O)c2cc(-c3cccc(C)c3)cc(=O)o2)s1", "note": "[Compound 249, N-(5-methylsulfanyl-1,3,4-thiadiazol-2-yl)-4-(m-tolyl)-6-oxo-pyran-2-carboxamide]", "IC50": "100 to 500"}, {"smiles": "CSc1nnc(NC(=O)c2cc(-c3ccc(C)cc3)cc(=O)o2)s1", "note": "[Compound 250, N-(5-methylsulfanyl-1,3,4-thiadiazol-2-yl)-6-oxo-4-(p-tolyl)pyran-2-carboxamide]", "IC50": "100 to 500"}, {"smiles": "CSc1nnc(NC(=O)c2cc(-c3ccccc3Cl)cc(=O)o2)s1", "note": "[Compound 251, 4-(2-chlorophenyl)-N-(5-methylsulfanyl-1,3,4-thiadiazol-2-yl)-6-oxo-pyran-2-carboxamide]", "IC50": "100 to 500"}, {"smiles": "COc1ccc(-c2cc(C(=O)Nc3nnc(SC)s3)oc(=O)c2)cc1", "note": "[Compound 252, 4-(4-methoxyphenyl)-N-(5-methylsulfanyl-1,3,4-thiadiazol-2-yl)-6-oxo-pyran-2-carboxamide]", "IC50": "100 to 500"}, {"smiles": "CSc1nnc(NC(=O)c2cc(-c3cccc4ccccc34)cc(=O)o2)s1", "note": "[Compound 253, N-(5-methylsulfanyl-1,3,4-thiadiazol-2-yl)-4-(1-naphthyl)-6-oxo-pyran-2-carboxamide]", "IC50": "100 to 500"}, {"smiles": "CSc1nnc(NC(=O)c2cc(-c3ccc4ccccc4n3)cc(=O)o2)s1", "note": "[Compound 254, N-(5-methylsulfanyl-1,3,4-thiadiazol-2-yl)-6-oxo-4-(2-quinolyl)pyran-2-carboxamide]", "IC50": "100 to 500"}, {"smiles": "CSc1nnc(NC(=O)c2cc(-c3cnc4ccccc4c3)cc(=O)o2)s1", "note": "[Compound 255, N-(5-methylsulfanyl-1,3,4-thiadiazol-2-yl)-6-oxo-4-(3-quinolyl)pyran-2-carboxamide]", "IC50": "500 to 1000"}, {"smiles": "CSc1nnc(NC(=O)c2cc(-c3cncc4ccccc34)cc(=O)o2)s1", "note": "[Compound 256, 4-(4-isoquinolyl)-N-(5-methylsulfanyl-1,3,4-thiadiazol-2-yl)-6-oxo-pyran-2-carboxamide]", "IC50": "500 to 1000"}, {"smiles": "CSc1nnc(NC(=O)c2nnc(Nc3ccccc3)o2)s1", "note": "[Compound 257, 5-anilino-N-(5-methylsulfanyl-1,3,4-thiadiazol-2-yl)-1,3,4-oxadiazole-2-carboxamide]", "IC50": "500 to 1000"}, {"smiles": "CSc1nnc(NC(=O)c2nnc(Cc3ccccc3)o2)s1", "note": "[Compound 259, 5-benzyl-N-(5-methylsulfanyl-1,3,4-thiadiazol-2-yl)-1,3,4-oxadiazole-2-carboxamide]", "IC50": "500 to 1000"}, {"smiles": "CSc1nnc(NC(=O)c2nnc3ccccn23)s1", "note": "[Compound 260]", "IC50": "≥ 1000"}, {"smiles": "CSc1nnc(NC(=O)c2nc(Cc3ccccc3)no2)s1", "note": "[Compound 261, 3-benzyl-N-(5-methylsulfanyl-1,3,4-thiadiazol-2-yl)-1,2,4-oxadiazole-5-carboxamide]", "IC50": "500 to 1000"}, {"smiles": "CSc1nnc(NC(=O)c2noc(C3CCCCC3)n2)s1", "note": "[Compound 263, 5-cyclohexyl-N-(5-(methylthio)-1,3,4-thiadiazol-2-yl)-1,2,4-oxadiazole-3-carboxamide]", "IC50": "≥ 1000"}, {"smiles": "CSc1nnc(NC(=O)c2cc(-c3ccc4ccncc4c3)cc(=O)o2)s1", "note": "[Compound 264, 4-(isoquinolin-7-yl)-N-(5-(methylthio)-1,3,4-thiadiazol-2-yl)-2-oxo-2H-pyran-6-carboxamide]", "IC50": "100 to 500"}]}]}
